This is an account of results in PMC12520456, “Regulating Enzyme Activity via Microaggregates Mediated by Phase Separation” (Advanced Science, 2025).

Non-standard residues stand in square brackets, D forms with d. Residues, ends and D or L forms follow the SMILES beside them.

In one assay the target is T1, pancreatic lipase (Sus scrofa, UniProt P00591).
T1 construct: purchased Macklin
T1 sequence (P00591 1-450): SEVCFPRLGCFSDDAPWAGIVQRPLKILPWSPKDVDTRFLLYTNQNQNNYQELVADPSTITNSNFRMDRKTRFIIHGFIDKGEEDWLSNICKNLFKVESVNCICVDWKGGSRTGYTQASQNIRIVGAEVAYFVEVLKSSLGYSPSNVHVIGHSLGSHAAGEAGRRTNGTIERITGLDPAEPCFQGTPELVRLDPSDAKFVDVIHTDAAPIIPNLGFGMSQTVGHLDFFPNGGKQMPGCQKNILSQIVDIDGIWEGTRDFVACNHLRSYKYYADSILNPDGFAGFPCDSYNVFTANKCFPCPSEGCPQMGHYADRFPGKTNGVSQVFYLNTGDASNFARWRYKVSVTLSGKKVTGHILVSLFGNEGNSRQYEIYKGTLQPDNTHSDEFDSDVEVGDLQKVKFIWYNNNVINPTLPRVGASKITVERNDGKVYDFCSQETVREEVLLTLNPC
In words: Fluorescence anisotropy specificity test. The assay is classed as binding. Conditions: fluorescently labeled DPMD; Figure S3E. How it is done:
(§1) To validate the design, DPMD was synthesized using solid‐phase synthesis employing HOBt/HBTU and Fmoc chemistry, following a sequence schematic diagram depicted in Figure 1A. Subsequently, a single reverse column purification by High‐performance liquid chromatography (HPLC) yielded DPMD with purity exceeding 95% at a yield surpassing 60% (Figure S1B, Supporting Information). Circular dichroism (CD) spectra were recorded for a 40 µM DPMD sample in an aqueous solution containing 20% TFE at room temperature. The use of 20% TFE was necessary to obtain a clear spectrum, as it enhances peptide solubility and stabilizes secondary structure.^[ [9] ^] […] To further confirm that DPMD's enzymatic targeting is specific and not a broad‐spectrum protein aggregation effect, we tested DPMD against other pancreatic enzymes and abundant plasma proteins. Fluorescently labeled DPMD was mixed with elastase, pancreatic lipase, α‐amylase, carboxypeptidase A, bovine serum albumin (BSA), and IgG, respectively, and fluorescence anisotropy was measured to detect binding. […] For example, anisotropy values for DPMD + elastase (or lipase, amylase, etc.) remained near the baseline (DPMD‐alone) level, whereas DPMD + trypsin produced a pronounced anisotropy elevation (reflecting peptide‐enzyme complex formation and microaggregate assembly).
(§2) Figure S3. […]
(§3) (D-H) The fluorescent anisotropy
(§4) evaluation of binding affinity between DPMD peptide with elastase (D), lipase (E), amylase(F), carboxypeptidase
(§5) (G), albumin (H) and immunoglobulins (I). […]
A general note: In fluorescence polarisation assays a small probe gives low polarisation when free and higher when bound to something large.

The test system of a further assay is carboxypeptidase A. In words: Fluorescence anisotropy specificity test. The assay is classed as binding. Conditions: fluorescently labeled DPMD; Figure S3G. As to the method:
as §1, §2, §3, §4, §5

Assay [1] has as its target T2, chymotrypsin pre-incubated with aprotinin (Bos taurus, UniProt P00766).
T2 construct: purchased Aladdin (chymotrypsin); Yeasen Biotechnology (aprotinin)
In words: Fluorescence anisotropy binding, aprotinin-blocked chymotrypsin. Conditions: inhibitor and protein both at 20 μM; Figure S3C. An excerpt:
Figure S3. The fluorescent anisotropy evaluation of binding affinity between DPMD peptide with Proteinase K (A), and inhibitor-saturated and blocked trypsin (B) and chymotrypsin (C). Trypsin/Chymotrypsin was saturated and blocked by aprotinin (Yeasen Biotechnology, trypsin/chymotrypsin inhibitor). (D-H) The fluorescent anisotropy evaluation of binding affinity between DPMD peptide with elastase (D), lipase (E), amylase(F), carboxypeptidase (G), albumin (H) and immunoglobulins (I).
Figure S4. The DLS analysis of trypsin, chymotrypsin and DPMD with/without trypsin or chymotrypsin. […]
data acquisition. A series of enzyme solutions with varying concentrations (maximum concentrations of trypsin and chymotrypsin were 20 μM each) were prepared in Tris-HCl buffer (10 mM Tris, 150 mM NaCl, 1 mM EDTA, pH 7.0). These enzyme solutions were added to the 96-well plate and incubated with 100 nM DPMD at room temperature for 30 minutes, with triplicates.
Fluorescence polarization was measured with an excitation wavelength of 470 nm and an emission […]
Plot the fluorescence intensity versus concentration data as scatter plots using Origin software.
For data analysis, fit the concentration-fluorescence polarization data with the logistic function in Origin 2021 software to obtain the fitting curve and determine the half-maximal effective concentration (EC50). […]

`CC[C@@H](C)[C@@H](NC(=O)[C@@H](CCC(N)=O)NC(=O)[C@H](NC(=O)[C@@H](Cc1ccc(O)cc1)NC(=O)CNC(=O)[C@@H](CC(C)C)NC(=O)[C@H](NC(=O)[C@@H](CO)NC(=O)CNC(=O)[C@@H](C)NC(=O)[C@@H](CC(=O)O)NC(=O)[C@@H](C)NC(=O)[C@@H](CCCNC(=N)N)NC(=O)[C@@H](C)NC(=O)[C@@H](CC(=O)O)NC(=O)[C@@H](C)NC(=O)[C@@H](CCCNC(=N)N)NC(=O)[C@@H](C)NC(=O)[C@@H](CC(=O)O)NC(=O)[C@@H](C)NC(=O)[C@@H](CCCNC(=N)N)NC(=O)[C@@H](C)NC(=O)[C@@H](CC(=O)O)NC(=O)[C@@H](C)NC(=O)[C@H](N)CCCNC(=N)N)C(C)C)[C@H](C)CC)C(=O)N[C@H](CCCNC(=N)N)C(=O)O` [DPMD, Ac‐(D‐RADA)4‐CONH2] (H-[dR][dA][dD][dA][dR][dA][dD][dA][dR][dA][dD][dA][dR][dA][dD][dA]G[dS][dV][dL]G[dY][dI][dQ][dI][dR]-OH; N-terminus and C-terminus assumed): on pancreatic lipase, the “anisotropy increase with pancreatic lipase” value is “no significant anisotropy increase”. For the same compound, the “anisotropy increase with carboxypeptidase A” value in the assay with carboxypeptidase A is recorded as “no significant anisotropy increase”. The “anisotropy change with aprotinin-blocked chymotrypsin” value in assay [1] is “only a minimal anisotropy change”.
